Assay results as given in ChEMBL document CHEMBL1157064, “Homoisoflavonoids from the fibrous roots of Polygonatum odoratum with glucose uptake-stimulatory activity in 3T3-L1 adipocytes” (J Nat Prod, 2010).
The source made the active and inactive calls. The rule behind the calls is not given here.

Tested on: 3T3-L1
Test: Increase in insulin-stimulated [3H]2-deoxy-D-glucose uptake in mouse 3T3L1cells at 1 uM after 3 days by liquid scintillation counting relative to insulin
Assay type: functional, cell-based

Row | SMILES | Activity
1 | COc1ccc(CC2COc3c(OC)c(O)c(C)c(O)c3C2=O)c(O)c1 (racemic) | Active
2 | COc1ccc(C[C@@H]2COc3c(OC)c(O)c(C)c(O)c3C2=O)cc1 | Active
3 | COc1ccc(CC2COc3c(C)c(O)c(C)c(O)c3C2=O)cc1O (racemic) | Active
4 | Cc1c(O)c(C)c2c(c1O)C(=O)[C@H](Cc1ccc(O)cc1)CO2 | Active
5 | O=C1/C(=C/c2ccc(O)cc2)COc2cc(O[C@@H]3O[C@H](CO)[C@@H](O)[C@H](O)[C@H]3O)cc(O)c21 | Active
6 | COc1ccc([C@@H]2CC(=O)c3c(O)cc(O[C@@H]4O[C@H](CO[C@@H]5O[C@@H](C)[C@H](O)[C@@H](O)[C@H]5O)[C@@H](O)[C@H](O)[C@H]4O)cc3O2)cc1O | Active
7 | COc1ccc(C[C@@H]2COc3c(C)c(O)c(C)c(O)c3C2=O)cc1 | Active
8 | COc1ccc(CC2COc3c(C)c(O)c(C)c(O)c3C2=O)c(O)c1 (racemic) | Active
9 | COc1c(O)c(C)c(O)c2c1OC[C@@H](Cc1ccc(O)cc1)C2=O | Active
10 | COc1c(O[C@@H]2O[C@H](CO)[C@@H](O)[C@H](O)[C@H]2O)cc2occ(-c3ccc(O)cc3)c(=O)c2c1O | Active
11 | Cc1c(O)c(C)c2c(c1O)C(=O)/C(=C/c1ccc(O)cc1)CO2 | Active
